Some test systems named below: RXF 393 renal; KM20L2 colon; DMS 114 small cell lung; MDA-MB-231 breast; OVCAR-5 ovarian; HOP-92 NSCLC; UACC-257 melanoma; DLD-1 colon; MOLT-4 leukemia; SNB-19 CNS; SK-MEL-2 melanoma; HOP-18 NSCLC.
Common to all, as to assay: NCI tumour cell line growth inhibition, 48 h

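Results reflect a 48-hour exposure of cells in 96-well plates to compound at five concentrations. GI50: concentration for 50% inhibition of growth. At the TGI there is no net growth.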

In the case of `O=C(Nc1nn[nH]n1)c1nc(-c2ccccc2)cc(=O)[nH]1`, the TGI in the test on RXF 393 renal, with KM20L2 colon, with DMS 114 small cell lung, in the test with MDA-MB-231 breast, in the test with OVCAR-5 ovarian and in the test with HOP-92 NSCLC was above 100 µM throughout. In addition, the TGI in the test with UACC-257 melanoma, in the test on DLD-1 colon, in the test with MOLT-4 leukemia, in the test on SNB-19 CNS and in the test on SK-MEL-2 melanoma was above 100 µM throughout.

On to `C=C1C(C)C2C(Cc3ccccc3)NC(=O)C23OC(=O)/C=C\CC(=O)CCC(C)C/C=C/C3C1O` (centres undefined), for which the TGI was 1.42 µM with RXF 393 renal; 15.8 µM in the test on KM20L2 colon; 6.61 µM in the test on DMS 114 small cell lung; 25.2 µM in the test on OVCAR-5 ovarian; 2.1 µM in the test with HOP-92 NSCLC; 3.89 µM with UACC-257 melanoma. The TGI in the test on DLD-1 colon was found to be 3.36 µM; in the test with MOLT-4 leukemia, 3.83 µM; with HOP-18 NSCLC, 1.94 µM; with SNB-19 CNS it was 12.9 µM; in the test with SK-MEL-2 melanoma, 8.35 µM. The results for the GI50 in the test with HOP-92 NSCLC and with MOLT-4 leukemia were 0.345 µM and 1.01 µM, respectively.

For the compound `CCCCN(C)/N=N/c1nc[nH]c1C(N)=O`, the TGI in the test with RXF 393 renal, in the test with KM20L2 colon, in the test with DMS 114 small cell lung, in the test with OVCAR-5 ovarian, in the test with HOP-92 NSCLC and in the test on UACC-257 melanoma was above 100 µM in each case. The TGI in the test on DLD-1 colon, in the test with MOLT-4 leukemia, with HOP-18 NSCLC, in the test on SNB-19 CNS and in the test with SK-MEL-2 melanoma was above 100 µM in each case.

On to `O=c1c2ccccc2nc2ccc3c(Cl)[nH][nH]c3c12`, for which the TGI with RXF 393 renal is above 100 µM; in the test on KM20L2 colon, above 100 µM; with DMS 114 small cell lung it was above 100 µM; with OVCAR-5 ovarian, 98 µM; in the test on HOP-92 NSCLC it was above 100 µM; in the test on UACC-257 melanoma, above 92.7 µM. For the same compound, the TGI is above 100 µM in the test with DLD-1 colon; above 79 µM with MOLT-4 leukemia; above 100 µM with HOP-18 NSCLC; above 100 µM in the test on SNB-19 CNS; above 100 µM in the test on SK-MEL-2 melanoma.

For `O=C1C2C=CC(n3[nH]c(=O)n(Cc4ccccc4)c3=O)CC2C(=O)N1c1ccc(Br)cc1` (centres undefined), the TGI in the test on RXF 393 renal, with KM20L2 colon, in the test on DMS 114 small cell lung, in the test on OVCAR-5 ovarian, in the test on HOP-92 NSCLC and in the test with UACC-257 melanoma was above 100 µM in each case. Further, the TGI in the test with DLD-1 colon, with MOLT-4 leukemia, in the test on HOP-18 NSCLC, in the test on SNB-19 CNS and in the test with SK-MEL-2 melanoma was above 100 µM in each case.

`COc1ccc(Oc2ccccc2N)cc1`: the TGI in the test on RXF 393 renal was 98.2 µM; in the test with KM20L2 colon, above 100 µM; in the test with DMS 114 small cell lung, above 100 µM; in the test with OVCAR-5 ovarian, above 100 µM; with HOP-92 NSCLC it was above 100 µM; with UACC-257 melanoma, above 100 µM. Further, the TGI in the test on DLD-1 colon, in the test on MOLT-4 leukemia, in the test on HOP-18 NSCLC and in the test on SK-MEL-2 melanoma was above 100 µM throughout.

As for `CCOC(=O)C1=C(O)c2ccc(C)cc2C(=O)C1=O`, the TGI in the test on RXF 393 renal, with KM20L2 colon, in the test on DMS 114 small cell lung, in the test with OVCAR-5 ovarian, in the test with HOP-92 NSCLC and in the test on UACC-257 melanoma was above 100 µM throughout. For the same compound, the TGI in the test on DLD-1 colon, in the test with MOLT-4 leukemia, in the test on HOP-18 NSCLC, in the test on SNB-19 CNS and with SK-MEL-2 melanoma was above 100 µM in each case.

For `[N-]=[N+]=NCC(O)Cn1cnc2c(NC(=O)c3ccccc3)ncnc21` (centres undefined), the TGI in the test with RXF 393 renal, with KM20L2 colon, in the test with DMS 114 small cell lung, with OVCAR-5 ovarian, with HOP-92 NSCLC and with UACC-257 melanoma was above 100 µM each time. For the same compound, the TGI with DLD-1 colon, in the test with MOLT-4 leukemia, in the test with HOP-18 NSCLC, with SNB-19 CNS and with SK-MEL-2 melanoma was above 100 µM in each case.

As to `Nc1c(S(=O)(=O)O)cc(S(=O)(=O)O)c2ccc(N=Nc3ccc(/C=C/c4ccc(N=Nc5ccc6c(S(=O)(=O)O)cc(S(=O)(=O)O)c(N)c6c5O)cc4S(=O)(=O)O)c(S(=O)(=O)O)c3)c(O)c12`, the TGI with RXF 393 renal, with KM20L2 colon, in the test with DMS 114 small cell lung, with OVCAR-5 ovarian, in the test on HOP-92 NSCLC and in the test on UACC-257 melanoma was above 100 µM in each case. Besides, the TGI in the test on DLD-1 colon, in the test on MOLT-4 leukemia, with HOP-18 NSCLC, with SNB-19 CNS and with SK-MEL-2 melanoma was above 100 µM in each case.

With `CC1(C)O[C@@H](C[C@]2(C#N)C[C@H](CCl)OC(C)(C)O2)C[C@@H](C#N)O1`, the TGI with RXF 393 renal, in the test with KM20L2 colon, in the test with DMS 114 small cell lung, in the test with OVCAR-5 ovarian, in the test with HOP-92 NSCLC and in the test with UACC-257 melanoma was above 100 µM each time. The TGI in the test with DLD-1 colon, in the test on MOLT-4 leukemia, in the test with HOP-18 NSCLC, with SNB-19 CNS and in the test with SK-MEL-2 melanoma was above 100 µM in each case.

`N/C(=N\N=C\c1ncccc1O)NO`: the TGI in the test with RXF 393 renal, with KM20L2 colon, with DMS 114 small cell lung, with OVCAR-5 ovarian, in the test with HOP-92 NSCLC and in the test with UACC-257 melanoma was above 100 µM throughout. The TGI in the test on DLD-1 colon was above 100 µM; with MOLT-4 leukemia, above 64.4 µM; in the test on HOP-18 NSCLC it was above 100 µM; in the test on SNB-19 CNS it was 98.9 µM; with SK-MEL-2 melanoma, above 100 µM.

Turning to `CSc1cnc2ccccc2c1Sc1c[nH]c2ccccc2c1=O`, the TGI in the test on RXF 393 renal was 37.6 µM; in the test on KM20L2 colon it was 15.9 µM; in the test on DMS 114 small cell lung, 32.9 µM; in the test with OVCAR-5 ovarian, 59.4 µM; in the test with HOP-92 NSCLC, 29.7 µM; in the test on UACC-257 melanoma, 48 µM. In addition, the TGI is above 80.7 µM with DLD-1 colon; above 44.7 µM in the test on MOLT-4 leukemia; 67.8 µM in the test with HOP-18 NSCLC; 65.4 µM with SNB-19 CNS; 34.6 µM in the test on SK-MEL-2 melanoma.

With `COc1ccc(C)cc(=O)c1O`, the TGI with RXF 393 renal is 90 µM; in the test with KM20L2 colon, above 100 µM; in the test with DMS 114 small cell lung, 50.4 µM; with OVCAR-5 ovarian, above 100 µM; with HOP-92 NSCLC, above 100 µM; in the test with UACC-257 melanoma, above 100 µM. The TGI with DLD-1 colon, with MOLT-4 leukemia, with HOP-18 NSCLC, with SNB-19 CNS and in the test with SK-MEL-2 melanoma was above 100 µM throughout.
